Laboratory results from patent publication US10010619B2, “Bipartite inhibitors of bacterial RNA polymerase” (priority 2011, dated 2018).
Converted amounts (≈) assume the structure as drawn. Like-named read-outs stand apart in the source and are kept apart here.

Key:
[1] = tested on: Escherichia coli D21f2tolC; assay: Broth microdilution MIC, E. coli D21f2tolC; assay type: cell-based
From the text: (§1) Minimum inhibitory concentrations (MICs) for Staphylococcus aureus ATCC 12600, Enterococcus faecalis ATCC 19433, Acinetobacter baumannii ATCC 19606, and Escherichia coli D21f2tolc (Fralick, J. and Burns-Keliher, L. (1994) J. Bacteriol. 176, 6404-6406) were quantified using broth microdilution assays as described [Clinical and Laboratory Standards Institute (CLSI/NCCLS) (2009) Methods for Dilution Antimicrobial Susceptibility Tests for Bacteria That Grow Aerobically; Approved Standard, Eighth Edition. CM Document M07-A8 (CLIS, Wayne Pa.)].

[2] = tested on: Acinetobacter baumannii ATCC 19606; assay: Broth microdilution MIC, A. baumannii; assay type: cell-based; conditions: ATCC19606
From the text: as §1

[3] = molecular target: T1, GE23077-resistant Escherichia coli RNAP derivative ([Asp565]β-RNAP) (Escherichia coli, UniProt P0A8V2, E565D); assay: biochemical
T1 construct: made in house
Experimental: Fluorescence-detected RNA polymerase assays with E. coli RNA polymerase were performed by a modification of the procedure of Kuhlman et al., 2004 [Kuhlman, P., Duff, H. and Galant, A. (2004) A fluorescence-based assay for multisubunit DNA-dependent RNA polymerases. Anal. Biochem. 324, 183-190]. Reaction mixtures contained (20 μl): 0-100 nM test compound, 75 nM Escherichia coli RNA polymerase σ^70 holoenzyme or Escherichia coli RNA polymerase σ^70 holoenzyme derivative (prepared as in Feklistov, A., Mekler, V., Jiang, Q., Westblade, L., Irschik, H., Jansen, R., Mustaev, A., Darst, S., and Ebright, R. (2008) Proc. Natl. Acad. Sci. USA 105, 14820-14825), 20 nM 384 bp DNA fragment containing the bacteriophage […] N25 promoter, 100 μM ATP, 100 μM GTP, 100 μM UTP, 100 μM CTP, 50 mM Tris-HCl, pH 8.0, 100 mM KCl, 10 mM MgCl2, 1 mM DTT, 10 μg/ml bovine serum albumin, and 5.5% glycerol. Reaction components other than DNA and NTPs were pre-incubated for 10 min at 37° C. […] RNA was quantified by addition of 100 μl RiboGreen RNA Quantitation Reagent (Invitrogen, Inc.; 1:500 dilution in Tris-HCl, pH 8.0, 1 mM EDTA), followed by incubation for 10 min at 25° C., followed by measurement of fluorescence intensity [excitation wavelength=485 nm and emission wavelength=535 nm; QuantaMaster QM1 spectrofluorimeter (PTI, Inc.)]. […]

[4] = molecular target: T2, rifamycin-resistant Escherichia coli RNAP derivative ([Asn516]β-RNAP) (Escherichia coli, UniProt P0A8V2, D516N); assay: Fluorescence-detected RNA polymerase assay, rifamycin-resistant RNAP derivative; assay type: biochemical
T2 construct: made in house
Experimental: Fluorescence-detected RNA polymerase assays with E. coli RNA polymerase were performed by a modification of the procedure of Kuhlman et al., 2004 [Kuhlman, P., Duff, H. and Galant, A. (2004) A fluorescence-based assay for multisubunit DNA-dependent RNA polymerases. Anal. Biochem. 324, 183-190]. Reaction mixtures contained (20 μl): 0-100 nM test compound, 75 nM Escherichia coli RNA polymerase σ^70 holoenzyme or Escherichia coli RNA polymerase σ^70 holoenzyme derivative (prepared as in Feklistov, A., Mekler, V., Jiang, Q., Westblade, L., Irschik, H., Jansen, R., Mustaev, A., Darst, S., and Ebright, R. (2008) Proc. Natl. Acad. Sci. USA 105, 14820-14825), 20 nM 384 bp DNA fragment containing the bacteriophage […] N25 promoter, 100 μM ATP, 100 μM GTP, 100 μM UTP, 100 μM CTP, 50 mM Tris-HCl, pH 8.0, 100 mM KCl, 10 mM MgCl2, 1 mM DTT, 10 μg/ml bovine serum albumin, and 5.5% glycerol. Reaction components other than DNA and NTPs were pre-incubated for 10 min at 37° C. Reactions were carried out by addition of DNA and incubation for 5 min at 37° C., followed by addition of NTPs and incubation for 60 min at 37° C. DNA was removed by addition of 1 μl 5 mM CaCl2 and 2 U DNaseI (Ambion, Inc.), followed by incubation for 90 min at 37° C. RNA was quantified by addition of 100 μl RiboGreen RNA Quantitation Reagent (Invitrogen, Inc.; 1:500 dilution in Tris-HCl, pH 8.0, 1 mM EDTA), followed by incubation for 10 min at 25° C., followed by measurement of fluorescence intensity [excitation wavelength=485 nm and emission wavelength=535 nm; QuantaMaster QM1 spectrofluorimeter (PTI, Inc.)]. IC50 is defined as the concentration of inhibitor resulting in 50% inhibition of RNA polymerase activity.

[5] = tested on: Staphylococcus aureus ATCC 12600; assay: Broth microdilution MIC, S. aureus; assay type: cell-based; conditions: ATCC12600
From the text: as §1

[6] = tested on: Enterococcus faecalis ATCC 19433; assay: Broth microdilution MIC, E. faecalis; assay type: cell-based; conditions: ATCC19433
From the text: as §1

SMILES	MIC [1]	MIC [2]	IC50 [3]	potency relative to GE23077 on [Asp565]β RNAP ([3]; ratio of IC50s, times higher than GE23077)	IC50 [4]	potency relative to rifamycin SV on [Asn516]β RNAP ([4]; ratio of IC50s, times higher than rifamycin SV)	MIC [5]	MIC [6]	IC50 ([4]; read-out: IC50, rifamycin-resistant derivative of Escherichia coli RNAP [Asn516]β RNAP)
CO[C@H]1/C=C/O[C@@]2(C)Oc3c(C)c(O)c4c(O)c(c(NC(C)C(C)C(=O)NCC5NC(=O)CNC(=O)C(O)CNC(=O)C(C(C)O)NC(=O)C(C(O)C(O)C(N)=O)NC(=O)C(C(C)C)CC(=O)C(CO)NC5=O)c(O)c4c3C2=O)NC(=O)/C(C)=C\C=C\[C@H](C)C(O)C(C)[C@@H](O)[C@@H](C)[C@H](OC(C)=O)[C@@H]1C (stereo partly drawn) [compound 3, {rifamycin SV}-NH-{descarboxy-GE23077}]	2 mg/L (≈ 1.36 µM)	10 mg/L (≈ 6.8 µM)	0.02 µM	> 5,000 times	0.15 µM	80 times	0.05 mg/L (≈ 0.034 µM)	6 mg/L (≈ 4.08 µM)	–
CO[C@H]1/C=C/O[C@@]2(C)Oc3c(C)c(O)c4c(O)c(cc(O)c4c3C2=O)NC(=O)/C(C)=C\C=C\[C@H](C)[C@H](O)[C@@H](C)[C@@H](O)[C@@H](C)[C@H](OC(C)=O)[C@@H]1C [rifamycin SV, reference compound]	–	–	–	–	–	–	–	–	12 µM
